This assay deals with Chaperone protein DnaK (Escherichia coli (strain K12)) (UniProt P0A6Y8). As to the kind of experiment: E. coli DnaK SBD ligand binding – biophysical, NMR, chaperone (AID 1033). The conditions noted are these: Purified DnaK SBD.

Structures are written as SMILES. Active and inactive are the calls of the source. No rule for the calls is given here.

The text below walks through data of PubChem BioAssay AID1033 (Sanford-Burnham Center for Chemical Genomics, 2008).

Chaperone protein DnaK (Escherichia coli (strain K12)), sequence (P0A6Y8 whole entry, looked up): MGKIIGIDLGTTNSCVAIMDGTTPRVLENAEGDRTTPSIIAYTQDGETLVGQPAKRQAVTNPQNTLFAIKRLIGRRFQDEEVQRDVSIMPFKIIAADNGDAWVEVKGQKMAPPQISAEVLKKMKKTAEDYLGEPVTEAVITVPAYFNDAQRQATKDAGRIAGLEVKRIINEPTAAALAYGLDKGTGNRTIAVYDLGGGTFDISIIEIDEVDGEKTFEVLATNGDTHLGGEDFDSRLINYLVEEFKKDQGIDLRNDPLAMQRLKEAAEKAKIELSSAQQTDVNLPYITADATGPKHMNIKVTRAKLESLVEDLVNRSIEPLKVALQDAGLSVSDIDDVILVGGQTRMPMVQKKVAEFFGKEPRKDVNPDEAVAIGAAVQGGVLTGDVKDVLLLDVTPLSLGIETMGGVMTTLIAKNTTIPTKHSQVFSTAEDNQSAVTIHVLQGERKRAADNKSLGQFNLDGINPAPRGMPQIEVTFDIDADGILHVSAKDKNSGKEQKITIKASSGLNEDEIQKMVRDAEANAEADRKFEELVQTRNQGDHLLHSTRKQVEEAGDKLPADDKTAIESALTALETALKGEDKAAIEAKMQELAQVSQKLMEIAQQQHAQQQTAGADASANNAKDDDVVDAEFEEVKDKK

As a reminder, the Kd is the free concentration of one partner at which half of the binding sites on the other are occupied at equilibrium, for simple one-to-one binding. Regarding `CCOC(=O)c1cc(C)n(C)n1`, the Kd was > 4 mM (inactive).
Consider `CN(C)C(=O)Oc1cccc(-c2nnco2)c1`, for which the Kd was > 4 mM (inactive).
For `NC(=O)CSc1ccc2nnc(-c3cccs3)n2n1`, the Kd was > 4 mM (inactive).
For `Cc1cc(C(=O)NCc2ccccc2Br)no1`, the Kd was > 4 mM (inactive).
The figure for `CC(=O)NC(=S)Nc1ccccc1C(N)=O` is > 4 mM (inactive).
The figure for `O=C(NCN1CCOCC1)c1cccnc1` is > 4 mM (inactive); for `O=C(O)c1cc(F)cc2c1OCOC2` it is > 4 mM (inactive).
For the molecule `O=C1CCC(=O)N1c1ccc(O)cc1`, the Kd is > 4 mM (inactive).
As for `CC(=O)Nc1ccc(-c2ccc3nncn3n2)cc1`, the Kd is > 4 mM (inactive).
The figure for `COC(=O)c1ccc(C(=S)N2CCOCC2)cc1` is > 4 mM (inactive); for `N/C(=N/S(=O)(=O)c1cccs1)c1ccccc1` it is > 4 mM (inactive).
The figure for `CN1CCC(N(C)C2CCN(C)CC2)CC1` is > 4 mM (inactive); for `NC(=O)c1ccsc1N` it is > 4 mM (inactive).
The figure for `NC(=O)CSc1nnnn1-c1ccccc1` is > 4 mM (inactive); for `O=C(NN1CCOCC1)c1ccccc1F` it is > 4 mM (inactive).
As for `NS(=O)(=O)c1ccc(N=Cc2ccc[nH]2)cc1`, the Kd is > 4 mM (inactive).
Consider `CN(C)S(=O)(=O)c1cccc(N)c1`, for which the Kd was > 4 mM (inactive).
Consider `O=P1(O)c2ccccc2Nc2ccccc21`, for which the Kd is > 4 mM (inactive).
The same measure for `Nc1ccc(CN2CCOCC2)cc1`: > 4 mM (inactive).
Consider `CC(=O)Nc1ccccc1-c1ccccc1NC(C)=O`, for which the Kd was > 4 mM (inactive).
The figure for `Cc1ccc(OCC(=O)n2cnnc2N)c(C)c1` is > 4 mM (inactive); for `Cc1c(C(=O)Nc2ccccc2)sc(N)c1C(N)=O` it is > 4 mM (inactive).
As for `NC(=O)C(=O)NCc1ccc(Cl)cc1`, the Kd is > 4 mM (inactive).
With `CCN(CC)C(=O)c1n[nH]c(=O)c2ccccc12`, the Kd was > 4 mM (inactive).
The same measure for `O=C1CNC(=O)N1Cc1ccc(Br)cc1`: > 4 mM (inactive).
As for `Cc1cc(C(=O)N2CCN(c3ccccn3)CC2)c(C)o1`, the Kd was > 4 mM (inactive).
As to `NS(=O)(=O)c1ccc(N2CCCC2=O)cc1`, the Kd was > 4 mM (inactive).
As to `CC(=O)c1cc2c(cc1O)OC(C)(C)C=C2`, the Kd is > 4 mM (inactive).
The same measure for `OCCCc1nc2ccccc2[nH]1`: > 4 mM (inactive); for `Cc1ccc(N2C(=O)CC(Sc3ncn[nH]3)C2=O)cc1` (stereo not drawn): > 4 mM (inactive).
The same measure for `CN1CCN(c2ccc(C(=O)O)cc2)CC1`: > 4 mM (inactive).
The same measure for `O=C(c1ccccc1)c1ccccc1C(=O)N1CCOCC1`: > 4 mM (inactive); for `Cc1nc2ccccc2c(=O)n1-c1cccc(O)c1`: > 4 mM (inactive); for `Cc1n[nH]c(=S)n(/N=C/c2ccccc2)c1=O`: > 4 mM (inactive).
In the case of `O=c1/c(=C/c2cccs2)sc2ncnn12`, the Kd is > 4 mM (inactive).
As to `Cc1cc(SCC(=O)Nc2nccs2)nc(=O)[nH]1`, the Kd is > 4 mM (inactive).
Regarding `CC(=O)c1cc(C)ccc1O`, the Kd is > 4 mM (inactive).
As for `CC(=O)Oc1ccc2c(c1C(C)C)CCC1C(C)(C)CCC[C@]21C` (stereo partly drawn), the Kd is > 4 mM (inactive).
The same measure for `O=C(NC1=NCCS1)c1ccc([N+](=O)[O-])cc1Cl`: > 4 mM (inactive).
The figure for `O=C(NCc1ccccn1)c1ccccc1Cl` is > 4 mM (inactive).
For `O=c1c(O)c(-c2ccccc2)oc2ccc3occc3c12`, the Kd is > 4 mM (inactive).
Consider `COC1C=CC23c4cc5c(cc4CN(CC2O)[C@@H]3C1)OCO5` (stereo partly drawn), for which the Kd was > 4 mM (inactive).
The same measure for `COc1c2c(cc3c1OCO3)CCN(C)C2`: > 4 mM (inactive).
